# Source: ChEMBL document CHEMBL1681651, “A broad spectrum anticancer nucleoside with selective toxicity against human colon cells in vitro” (2011)
# What was measured:
# Assay type in all cases: functional
# [1] = system: TK-10; experiment: Growth inhibition of human TK10 cells assessed as cell growth at 1 uM after 48 hrs by SRB assay; details: TK-10, 48 h, read-out: Activity
# [2] = system: NCI/ADR-RES; experiment: Growth inhibition of human NCI/ADR-RES cells assessed as cell growth at 1 uM after 48 hrs by SRB assay; details: read-out: Activity
# [3] = system: HCT-116; experiment: Growth inhibition of human HCT116 cells assessed as cell growth at 10 uM after 48 hrs by SRB assay; details: HCT-116, 48 h, read-out: Activity
# [4] = system: NCI-H226; experiment: Growth inhibition of human NCI-H226 cells after 48 hrs by […] growth inhibition assay; details: NCI-H226, 48 h
# [5] = system: NCI-H322M; experiment: Growth inhibition of human NCI-H322M cells after 48 hrs by […] growth inhibition assay
# [6] = system: HT-29; experiment: Growth inhibition of human HT-29 cells after 48 hrs by […] growth inhibition assay; details: HT-29, 48 h
# [7] = system: UACC-62; experiment: Growth inhibition of human UACC62 cells after 48 hrs by […] growth inhibition assay; details: UACC-62, 48 h
# [8] = system: SF-539; experiment: Growth inhibition of human SF539 cells after 48 hrs by […] growth inhibition assay; details: SF-539, 48 h
# [9] = system: SN12C; experiment: Growth inhibition of human SN12C cells after 48 hrs by […] growth inhibition assay
# [10] = system: BT-549; experiment: Growth inhibition of human BT549 cells after 48 hrs by […] growth inhibition assay; details: BT-549, 48 h
# [11] = system: CCRF-CEM; experiment: Growth inhibition of human CCRF-CEM cells assessed as cell growth at 0.1 uM after 48 hrs by SRB assay; details: read-out: Activity
# [12] = system: EKVX; experiment: Growth inhibition of human EKVX cells assessed as cell growth at 0.1 uM after 48 hrs by SRB assay; details: read-out: Activity
# [13] = system: NCI-H522; experiment: Growth inhibition of human NCI-H522 cells assessed as cell growth at 0.1 uM after 48 hrs by SRB assay; details: NCI-H522, 48 h, read-out: Activity
# [14] = system: DU-145; experiment: Growth inhibition of human DU145 cells assessed as cell growth at 0.1 uM after 48 hrs by SRB assay; details: DU-145, 48 h, read-out: Activity
# [15] = system: OVCAR-5; experiment: Growth inhibition of human OVCAR5 cells assessed as cell growth at 10 uM after 48 hrs by SRB assay; details: OVCAR-5, 48 h, read-out: Activity
# [16] = system: HCT-15; experiment: Growth inhibition of human HCT15 cells assessed as cell growth at 100 uM after 48 hrs by SRB assay; details: HCT-15, 48 h, read-out: Activity
# [17] = system: KM12; experiment: Growth inhibition of human KM12 cells assessed as cell growth at 100 uM after 48 hrs by SRB assay; details: KM12, 48 h, read-out: Activity
# [18] = system: UACC-257; experiment: Growth inhibition of human UACC257 cells assessed as cell growth at 100 uM after 48 hrs by SRB assay; details: UACC-257, 48 h, read-out: Activity
# [19] = system: 786-0; experiment: Growth inhibition of human 786-0 cells assessed as cell growth at 100 uM after 48 hrs by SRB assay; details: 786-0, 48 h, read-out: Activity
# [20] = system: MDA-MB-435; experiment: Growth inhibition of human MDA-MB-435 cells assessed as cell growth at 100 uM after 48 hrs by SRB assay; details: MDA-MB-435, 48 h, read-out: Activity
# [21] = system: BT-549; experiment: Growth inhibition of human BT549 cells assessed as cell growth at 100 uM after 48 hrs by SRB assay; details: BT-549, 48 h, read-out: Activity
# [22] = system: NCI-H322M; experiment: Growth inhibition of human NCI-H322M cells assessed as cell growth at 1 mM after 48 hrs by SRB assay; details: read-out: Activity
# [23] = system: Malme-3M; experiment: Growth inhibition of human MALME-3M cells assessed as cell growth at 1 mM after 48 hrs by SRB assay; details: read-out: Activity
# [24] = system: M14; experiment: Growth inhibition of human M14 cells assessed as cell growth at 1 mM after 48 hrs by SRB assay; details: M14, 48 h, read-out: Activity
# [25] = system: OVCAR-8; experiment: Growth inhibition of human OVCAR8 cells assessed as cell growth at 1 mM after 48 hrs by SRB assay; details: OVCAR-8, 48 h, read-out: Activity
# [26] = system: A549; experiment: Growth inhibition of human A549 cells assessed as cell growth at 1 uM after 48 hrs by SRB assay; details: A549, 48 h, read-out: Activity
# [27] = system: HOP-62; experiment: Growth inhibition of human HOP62 cells assessed as cell growth at 1 uM after 48 hrs by SRB assay; details: HOP-62, 48 h, read-out: Activity
# [28] = system: NCI-H226; experiment: Growth inhibition of human NCI-H226 cells assessed as cell growth at 1 uM after 48 hrs by SRB assay; details: NCI-H226, 48 h, read-out: Activity
# [29] = system: HCC 2998; experiment: Growth inhibition of human HCC2998 cells assessed as cell growth at 1 uM after 48 hrs by SRB assay; details: HCC 2998, 48 h, read-out: Activity
# [30] = system: IGROV-1; experiment: Growth inhibition of human IGROV1 cells assessed as cell growth at 1 uM after 48 hrs by SRB assay; details: IGROV-1, 48 h, read-out: Activity
# [31] = system: SK-MEL-28; experiment: Growth inhibition of human SK-MEL-28 cells assessed as cell growth at 10 uM after 48 hrs by SRB assay; details: SK-MEL-28, 48 h, read-out: Activity
# [32] = read-out: LC50 (the source's name)
# [33] = read-out: pLC50 (the source's name) (converted)
structure (smiles),measurement,setting,value
CNC(=O)NC[C@H]1O[C@@H](n2cnc3c(NC(=O)Nc4ccccc4)ncnc32)[C@H](O[Si](C)(C)C(C)(C)C)[C@@H]1O[Si](C)(C)C(C)(C)C,growth at 1 µM,[1],113%
same,growth at 1 µM,[2],109%
same,growth at 10 µM,[3],102%
same,GI50,[4]; read-out: GI50,3.1 µM
same,CC50,[4]; [32],> 100 µM
same,TGI,[4]; read-out: TGI,8.63 µM
same,GI50,[4]; read-out: pGI50 (converted),3.09 µM
same,CC50,[4]; [33],> 100 µM
same,TGI,[4]; read-out: pTGI (converted),8.71 µM
same,GI50,[5]; read-out: GI50,6.86 µM
same,CC50,[5]; [32],> 100 µM
same,TGI,[5]; read-out: TGI,> 100 µM
same,GI50,[5]; read-out: pGI50 (converted),6.92 µM
same,CC50,[5]; [33],> 100 µM
same,TGI,[5]; read-out: pTGI,> 100 µM
same,GI50,[6]; read-out: GI50,2.02 µM
same,CC50,[6]; [32],6.91 µM
same,TGI,[6]; read-out: TGI,3.73 µM
same,GI50,[6]; read-out: pGI50 (converted),2 µM
same,CC50,[6]; [33],6.92 µM
same,TGI,[6]; read-out: pTGI (converted),3.72 µM
same,GI50,[7]; read-out: GI50,3.98 µM
same,CC50,[7]; [32],> 100 µM
same,TGI,[7]; read-out: TGI,23.6 µM
same,GI50,[7]; read-out: pGI50 (converted),3.98 µM
same,CC50,[7]; [33],> 100 µM
same,TGI,[7]; read-out: pTGI (converted),23.4 µM
same,GI50,[8]; read-out: GI50,3.07 µM
same,CC50,[8]; [32],94.3 µM
same,TGI,[8]; read-out: TGI,13 µM
same,GI50,[8]; read-out: pGI50 (converted),3.09 µM
same,CC50,[8]; [33],93.3 µM
same,TGI,[8]; read-out: pTGI (converted),12.9 µM
same,GI50,[9]; read-out: GI50,1.81 µM
same,CC50,[9]; [32],6.29 µM
same,TGI,[9]; read-out: TGI,3.38 µM
same,GI50,[9]; read-out: pGI50 (converted),1.82 µM
same,CC50,[9]; [33],6.31 µM
same,TGI,[9]; read-out: pTGI (converted),3.39 µM
same,GI50,[10]; read-out: GI50,2.94 µM
same,CC50,[10]; [32],> 100 µM
same,TGI,[10]; read-out: TGI,8.18 µM
same,GI50,[10]; read-out: pGI50 (converted),2.95 µM
same,CC50,[10]; [33],> 100 µM
same,TGI,[10]; read-out: pTGI (converted),8.13 µM
same,growth at 0.1 µM,[11],104%
same,growth at 0.1 µM,[12],105%
same,growth at 0.1 µM,[13],92%
same,growth at 0.1 µM,[14],103%
same,growth at 10 µM,[15],103%
same,growth at 100 µM,[16],11%
same,growth at 100 µM,[17],-66%
same,growth at 100 µM,[18],11%
same,growth at 100 µM,[19],-83%
same,growth at 100 µM,[20],9%
same,growth at 100 µM,[21],-10%
same,growth at 1000 µM,[22],21%
same,growth at 1000 µM,[23],-48%
same,growth at 1000 µM,[24],-52%
same,growth at 1000 µM,[25],-9%
same,growth at 1 µM,[26],98%
same,growth at 1 µM,[27],108%
same,growth at 1 µM,[28],106%
same,growth at 1 µM,[29],93%
same,growth at 1 µM,[30],99%
CNC(=O)NC[C@H]1O[C@@H](n2cnc3c(NC(=O)Nc4ccccc4)ncnc32)[C@H](O[Si](C)(C)C(C)(C)C)[C@@H]1CC(=O)N(C)OC,growth at 1 µM,[1],106%
same,growth at 1 µM,[2],109%
same,growth at 10 µM,[3],89%
same,GI50,[4]; read-out: GI50,41.9 µM
same,CC50,[4]; [32],> 100 µM
same,TGI,[4]; read-out: TGI,> 100 µM
same,GI50,[4]; read-out: pGI50 (converted),41.7 µM
same,CC50,[4]; [33],> 100 µM
same,TGI,[4]; read-out: pTGI (converted),> 100 µM
same,GI50,[5]; read-out: GI50,> 100 µM
same,CC50,[5]; [32],> 100 µM
same,TGI,[5]; read-out: TGI,> 100 µM
same,GI50,[5]; read-out: pGI50 (converted),> 100 µM
same,CC50,[5]; [33],> 100 µM
same,TGI,[5]; read-out: pTGI,> 100 µM
same,GI50,[6]; read-out: GI50,5.37 µM
same,CC50,[6]; [32],> 100 µM
same,TGI,[6]; read-out: TGI,> 100 µM
same,GI50,[6]; read-out: pGI50 (converted),5.37 µM
same,CC50,[6]; [33],> 100 µM
same,TGI,[6]; read-out: pTGI (converted),> 100 µM
same,GI50,[7]; read-out: GI50,41.9 µM
same,CC50,[7]; [32],> 100 µM
same,TGI,[7]; read-out: TGI,> 100 µM
same,GI50,[7]; read-out: pGI50 (converted),41.7 µM
same,CC50,[7]; [33],> 100 µM
same,TGI,[7]; read-out: pTGI (converted),> 100 µM
same,GI50,[8]; read-out: GI50,22.3 µM
same,CC50,[8]; [32],> 100 µM
same,TGI,[8]; read-out: TGI,> 100 µM
same,GI50,[8]; read-out: pGI50 (converted),22.4 µM
same,CC50,[8]; [33],> 100 µM
same,TGI,[8]; read-out: pTGI (converted),> 100 µM
same,GI50,[9]; read-out: GI50,85.3 µM
same,CC50,[9]; [32],> 100 µM
same,TGI,[9]; read-out: TGI,> 100 µM
same,GI50,[9]; read-out: pGI50 (converted),85.1 µM
same,CC50,[9]; [33],> 100 µM
same,TGI,[9]; read-out: pTGI (converted),> 100 µM
same,GI50,[10]; read-out: GI50,29 µM
same,CC50,[10]; [32],> 100 µM
same,TGI,[10]; read-out: TGI,> 100 µM
same,GI50,[10]; read-out: pGI50 (converted),28.8 µM
same,CC50,[10]; [33],> 100 µM
same,TGI,[10]; read-out: pTGI (converted),> 100 µM
same,growth at 0.1 µM,[11],101%
same,growth at 0.1 µM,[12],94%
same,growth at 0.1 µM,[13],90%
same,growth at 0.1 µM,[14],107%
same,growth at 10 µM,[31],101%
same,growth at 10 µM,[15],92%
same,growth at 100 µM,[16],40%
same,growth at 100 µM,[17],62%
same,growth at 100 µM,[18],65%
same,growth at 100 µM,[19],48%
same,growth at 100 µM,[20],51%
same,growth at 100 µM,[21],70%
same,growth at 1000 µM,[22],73%
same,growth at 1000 µM,[23],23%
same,growth at 1000 µM,[24],18%
same,growth at 1000 µM,[25],22%
same,growth at 1 µM,[26],100%
same,growth at 1 µM,[27],88%
same,growth at 1 µM,[28],111%
same,growth at 1 µM,[29],97%
same,growth at 1 µM,[30],89%
